For data set [1] the following is noted: cited from earlier work.
The target in a further data set is T1, E1-STS enzyme (Homo sapiens, UniProt P08842).
T1 sequence (P08842 22-583): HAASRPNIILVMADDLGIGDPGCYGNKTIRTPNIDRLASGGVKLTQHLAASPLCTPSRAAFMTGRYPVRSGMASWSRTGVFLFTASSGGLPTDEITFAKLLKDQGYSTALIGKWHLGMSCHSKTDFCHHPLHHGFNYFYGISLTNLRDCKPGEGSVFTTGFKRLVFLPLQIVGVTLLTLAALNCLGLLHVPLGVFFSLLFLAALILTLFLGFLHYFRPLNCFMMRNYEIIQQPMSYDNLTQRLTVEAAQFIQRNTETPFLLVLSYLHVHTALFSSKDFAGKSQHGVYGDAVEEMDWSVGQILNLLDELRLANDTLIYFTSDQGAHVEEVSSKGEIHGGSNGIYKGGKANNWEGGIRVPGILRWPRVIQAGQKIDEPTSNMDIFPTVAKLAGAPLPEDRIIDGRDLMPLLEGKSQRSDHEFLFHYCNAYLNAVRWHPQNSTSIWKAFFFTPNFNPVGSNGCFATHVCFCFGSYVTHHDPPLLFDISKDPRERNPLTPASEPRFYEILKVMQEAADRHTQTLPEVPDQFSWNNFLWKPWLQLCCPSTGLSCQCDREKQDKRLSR
Particulars: prior art; cited from earlier work.

Data set [2] addresses T2, Steroid sulphatase (Steryl Sulphatase EC 3.1.6.2; E1-STS) in intact MCF-7 human breast cancer cells (Homo sapiens, UniProt P08842).
T2 construct: endogenous in cells; host or cells: MCF-7 human breast cancer cells
T2 sequence (P08842 22-583): T1 sequence (P08842 22-583)
Particulars: 0.1 μM; known from prior art; cited from earlier work.

The target in data set [3] is T3, dehydroepiandrosterone sulphatase (DHA-STS) (Rattus norvegicus, UniProt P15589).
T3 construct: host or cells: rat liver (in vivo dosing)
T3 sequence (P15589 20-577): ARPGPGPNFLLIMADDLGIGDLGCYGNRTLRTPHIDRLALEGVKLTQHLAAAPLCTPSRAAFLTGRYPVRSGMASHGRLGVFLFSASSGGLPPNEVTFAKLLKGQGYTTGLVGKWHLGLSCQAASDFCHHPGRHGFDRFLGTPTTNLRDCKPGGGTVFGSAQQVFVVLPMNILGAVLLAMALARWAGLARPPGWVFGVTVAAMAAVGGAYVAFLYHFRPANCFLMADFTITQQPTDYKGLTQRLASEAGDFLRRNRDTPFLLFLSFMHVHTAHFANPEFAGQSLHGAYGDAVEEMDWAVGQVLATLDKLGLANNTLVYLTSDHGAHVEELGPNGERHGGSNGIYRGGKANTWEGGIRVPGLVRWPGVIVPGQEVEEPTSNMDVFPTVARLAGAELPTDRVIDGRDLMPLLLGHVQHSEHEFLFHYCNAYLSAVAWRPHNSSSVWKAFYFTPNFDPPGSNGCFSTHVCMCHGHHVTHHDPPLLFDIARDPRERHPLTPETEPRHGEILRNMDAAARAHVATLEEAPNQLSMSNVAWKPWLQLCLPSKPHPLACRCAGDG
Particulars: administered either orally or subcutaneously; prior art; cited from earlier work.

In data set [4] the target is T4, Rat Liver Sulphatase (E1-STS) (Rattus norvegicus, UniProt P15589).
T4 construct: from tissue; host or cells: rat liver after oral dosing
T4 sequence (P15589 20-577): T3 sequence (P15589 20-577)
Put plainly: In vivo inhibition (rat liver sulphatase). Particulars: 2 mg/Kg/day × 5 days, oral dose.

The subject of a further data set is memory. Particulars: rats; prior art; cited from earlier work.
The target in data set [5] is T4, Rat Liver Sulphatase (E1-STS). Particulars: administered either orally or subcutaneously; prior art; cited from earlier work.

Results on four compounds are retold here after patent US6949561B1, “Steroid 3-O-sulphamate derivatives as inhibitors of oestrone sulphatase” (Sterix Limited, priority 1997, dated 2005).

On to `C[C@]12CC[C@@H]3c4ccc(OS(=O)(=O)O)cc4CC[C@H]3[C@@H]1CCC2=O` [Compound E1S, oestrone sulphate], for which the half-life in blood in data set [1] is 10 to 12 h.
Regarding oestrone-3-S-sulphamate, the “mode of E1-STS inhibition” value on E1-STS enzyme was “weaker non-time-dependent inactivators”.
In the case of `CC12CCC3c4ccc(OS(N)(=O)=O)cc4CCC3C1CCC2=O` (stereo not drawn) [EMATE, oestrone-3-sulphamate], the “inhibition of E1-STS activity in intact MCF-7 cells” value in data set [2] is “more than 99%”. The “mode of E1-STS inhibition” value at E1-STS enzyme is “time- and concentration-dependent manner”. The “inhibition of rat liver DHA-STS activity” value in data set [3] is 99%. In data set [4], the “In Vivo Inhibition (Rat Liver Sulphatase)” value worked out at 99.1±0.2%. The memory enhancing effect entry in the data set with memory was “memory enhancing effect”. The “inhibition of rat liver E1-STS activity” value in data set [5] is reported as 99%.
For the compound oestrone-3-N-sulphamate, at E1-STS enzyme, the “mode of E1-STS inhibition” value was “weaker non-time-dependent inactivators”.
